Laboratory results published in ChEMBL document CHEMBL1909046, “DrugMatrix in vitro pharmacology data”.

Tests used:
[1] = DRUGMATRIX: Calcium Channel Type L, Benzothiazepine radioligand binding (ligand: [3H] Diltiazem); type: cell membranes, Rattus norvegicus, Wistar, Brain, Membrane; settings: Not Active = under 50% inhibition at 10 µM
[2] = DRUGMATRIX: Phosphodiesterase PDE3 enzyme inhibition (substrate: [3H]cAMP + cAMP); type: tissue-based, Homo sapiens; settings: platelet; Not Active = under 50% inhibition at 10 µM
[3] = molecular target: Cannabinoid receptor 1 (Homo sapiens, UniProt P21554); type: cell membranes, Membrane; settings: chem-1; also: in other assays of this panel Not Active means under 50% inhibition at 10 µM
Chain of Cannabinoid receptor 1 (P21554 whole entry): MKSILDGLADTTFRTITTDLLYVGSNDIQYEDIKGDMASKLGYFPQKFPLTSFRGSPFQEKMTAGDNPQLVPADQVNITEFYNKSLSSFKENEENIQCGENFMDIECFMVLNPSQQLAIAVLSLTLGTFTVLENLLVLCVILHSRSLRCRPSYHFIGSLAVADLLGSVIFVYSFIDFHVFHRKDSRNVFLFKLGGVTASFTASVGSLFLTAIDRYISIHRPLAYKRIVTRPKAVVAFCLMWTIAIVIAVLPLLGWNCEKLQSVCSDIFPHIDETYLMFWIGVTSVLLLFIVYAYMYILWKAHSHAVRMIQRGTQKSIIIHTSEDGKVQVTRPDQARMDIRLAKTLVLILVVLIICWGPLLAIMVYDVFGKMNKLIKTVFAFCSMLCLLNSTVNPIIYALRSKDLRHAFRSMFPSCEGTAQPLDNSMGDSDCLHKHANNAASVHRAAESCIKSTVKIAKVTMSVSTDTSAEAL

[4] = DRUGMATRIX: Glutamate, Kainate radioligand binding (ligand: [3H] Kainic acid); type: cell membranes, Rattus norvegicus, Wistar, Brain, Membrane; settings: Not Active = under 50% inhibition at 10 µM
[5] = molecular target: T1, Neuropeptide Y receptor type 1 (Homo sapiens, UniProt P25929); type: cell membranes, Membrane; settings: sk-n-mc; also: in other assays of this panel Not Active means under 50% inhibition at 10 µM
T1 sequence (P25929 whole entry): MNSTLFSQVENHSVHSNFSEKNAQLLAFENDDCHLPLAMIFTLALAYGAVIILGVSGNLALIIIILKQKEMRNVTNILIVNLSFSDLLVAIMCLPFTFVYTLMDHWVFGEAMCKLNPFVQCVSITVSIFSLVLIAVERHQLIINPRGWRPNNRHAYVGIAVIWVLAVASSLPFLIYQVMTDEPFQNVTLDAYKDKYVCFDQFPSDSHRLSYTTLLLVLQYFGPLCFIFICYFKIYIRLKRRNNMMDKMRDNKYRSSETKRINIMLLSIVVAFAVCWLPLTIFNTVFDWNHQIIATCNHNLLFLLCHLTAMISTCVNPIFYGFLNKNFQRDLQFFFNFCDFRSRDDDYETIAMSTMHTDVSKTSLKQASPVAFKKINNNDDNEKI

[6] = molecular target: D(1A) dopamine receptor (Homo sapiens, UniProt P21728); experiment: DRUGMATRIX: Dopamine D1 radioligand binding (ligand: [3H] SCH-23390); type: cell membranes, CHO, Membrane; settings: cho; Not Active = under 50% inhibition at 10 µM
Chain of D(1A) dopamine receptor (P21728 whole entry): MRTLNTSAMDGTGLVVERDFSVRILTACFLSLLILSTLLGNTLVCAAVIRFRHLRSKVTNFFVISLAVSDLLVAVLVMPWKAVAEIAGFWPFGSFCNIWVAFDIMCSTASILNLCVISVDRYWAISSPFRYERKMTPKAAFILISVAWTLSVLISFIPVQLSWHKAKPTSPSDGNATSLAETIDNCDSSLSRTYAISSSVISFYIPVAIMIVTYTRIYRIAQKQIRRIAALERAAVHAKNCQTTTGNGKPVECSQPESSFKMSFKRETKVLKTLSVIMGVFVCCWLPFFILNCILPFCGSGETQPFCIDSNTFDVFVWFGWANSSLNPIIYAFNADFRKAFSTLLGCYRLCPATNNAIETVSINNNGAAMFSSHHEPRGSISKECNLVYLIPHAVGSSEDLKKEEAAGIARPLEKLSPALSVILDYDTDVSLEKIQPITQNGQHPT

[7] = molecular target: Delta-type opioid receptor (Homo sapiens, UniProt P41143); type: cell membranes, HEK293, Membrane; settings: hek293; also: in other assays of this panel Not Active means under 50% inhibition at 10 µM
Chain of Delta-type opioid receptor (P41143 whole entry): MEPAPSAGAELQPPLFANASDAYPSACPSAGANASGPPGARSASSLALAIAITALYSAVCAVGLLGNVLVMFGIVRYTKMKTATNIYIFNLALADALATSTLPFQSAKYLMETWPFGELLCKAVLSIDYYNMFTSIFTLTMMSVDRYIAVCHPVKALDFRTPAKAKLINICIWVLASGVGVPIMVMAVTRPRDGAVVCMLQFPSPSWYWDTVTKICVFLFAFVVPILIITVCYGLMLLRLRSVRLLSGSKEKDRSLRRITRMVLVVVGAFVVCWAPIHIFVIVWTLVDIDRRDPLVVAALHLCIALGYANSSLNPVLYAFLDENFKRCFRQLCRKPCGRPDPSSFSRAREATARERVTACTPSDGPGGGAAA

[8] = molecular target: T2, Neutrophil elastase (Homo sapiens, UniProt P08246); type: tissue-based;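 also: inhibition of neutrophil elastase enzyme activity, measured with a p-nitroanilide-linked peptide substrate; in other assays of this panel Not Active means under 50% inhibition at 10 µM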
T2 sequence (P08246 whole entry): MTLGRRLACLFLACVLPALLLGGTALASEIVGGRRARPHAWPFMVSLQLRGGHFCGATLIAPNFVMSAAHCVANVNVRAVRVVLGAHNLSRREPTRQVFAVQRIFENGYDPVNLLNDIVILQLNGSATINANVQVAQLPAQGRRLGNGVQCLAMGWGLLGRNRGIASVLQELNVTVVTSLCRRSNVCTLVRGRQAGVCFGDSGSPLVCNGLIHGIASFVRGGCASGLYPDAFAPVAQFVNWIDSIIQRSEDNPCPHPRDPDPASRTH

[9] = molecular target: D(3) dopamine receptor (Homo sapiens, UniProt P35462); experiment: DRUGMATRIX: Dopamine D3 radioligand binding (ligand: [3H] Spiperone); type: cell membranes, CHO, Membrane; settings: cho
Chain of D(3) dopamine receptor (P35462 whole entry): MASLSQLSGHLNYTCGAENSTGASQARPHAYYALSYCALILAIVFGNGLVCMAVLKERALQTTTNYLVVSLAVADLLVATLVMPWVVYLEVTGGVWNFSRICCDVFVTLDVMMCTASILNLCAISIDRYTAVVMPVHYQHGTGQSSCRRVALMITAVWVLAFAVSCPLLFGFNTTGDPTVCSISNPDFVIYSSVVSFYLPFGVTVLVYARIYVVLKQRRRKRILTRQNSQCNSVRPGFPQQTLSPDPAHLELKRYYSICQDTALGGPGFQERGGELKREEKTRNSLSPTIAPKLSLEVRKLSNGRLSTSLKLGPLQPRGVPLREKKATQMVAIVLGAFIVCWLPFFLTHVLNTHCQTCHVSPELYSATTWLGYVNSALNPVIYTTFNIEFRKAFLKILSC

[10] = molecular target: T3, Endothelin-1 receptor (Homo sapiens, UniProt P25101); type: cell membranes, Membrane; settings: cho-k1; also: in other assays of this panel Not Active means under 50% inhibition at 10 µM
T3 sequence (P25101 whole entry): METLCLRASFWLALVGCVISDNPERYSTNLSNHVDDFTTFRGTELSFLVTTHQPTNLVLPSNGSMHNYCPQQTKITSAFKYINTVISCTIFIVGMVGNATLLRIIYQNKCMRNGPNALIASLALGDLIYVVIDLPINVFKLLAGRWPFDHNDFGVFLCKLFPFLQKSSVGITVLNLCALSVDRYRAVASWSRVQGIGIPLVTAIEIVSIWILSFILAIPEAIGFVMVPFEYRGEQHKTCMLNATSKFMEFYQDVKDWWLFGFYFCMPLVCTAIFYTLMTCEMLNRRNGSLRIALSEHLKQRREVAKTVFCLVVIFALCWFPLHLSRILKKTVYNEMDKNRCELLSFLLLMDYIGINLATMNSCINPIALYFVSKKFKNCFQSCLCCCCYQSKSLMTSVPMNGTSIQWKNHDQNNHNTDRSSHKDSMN

[11] = molecular target: T4, 5-hydroxytryptamine receptor 1A (Rattus norvegicus, UniProt P19327); type: cell membranes, CHO-K1, Membrane; settings: cho-k1; also: in other assays of this panel Not Active means under 50% inhibition at 10 µM
T4 sequence (P19327 whole entry): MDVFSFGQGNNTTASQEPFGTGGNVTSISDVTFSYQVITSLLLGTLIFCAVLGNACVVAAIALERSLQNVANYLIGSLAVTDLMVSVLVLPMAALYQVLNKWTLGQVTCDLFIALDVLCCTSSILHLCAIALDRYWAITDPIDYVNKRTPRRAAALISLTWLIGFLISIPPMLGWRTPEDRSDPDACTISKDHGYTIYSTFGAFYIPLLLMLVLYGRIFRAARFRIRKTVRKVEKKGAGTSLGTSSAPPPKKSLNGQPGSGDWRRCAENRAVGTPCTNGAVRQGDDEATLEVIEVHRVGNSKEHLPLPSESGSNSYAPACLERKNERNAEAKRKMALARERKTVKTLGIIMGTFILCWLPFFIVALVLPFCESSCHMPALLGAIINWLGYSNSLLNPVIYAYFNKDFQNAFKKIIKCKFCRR

[12] = molecular target: T5, Muscarinic acetylcholine receptor M4 (Homo sapiens, UniProt P08173); type: cell membranes, CHO-K1, Membrane; settings: cho-k1; also: in other assays of this panel Not Active means under 50% inhibition at 10 µM
T5 sequence (P08173 whole entry): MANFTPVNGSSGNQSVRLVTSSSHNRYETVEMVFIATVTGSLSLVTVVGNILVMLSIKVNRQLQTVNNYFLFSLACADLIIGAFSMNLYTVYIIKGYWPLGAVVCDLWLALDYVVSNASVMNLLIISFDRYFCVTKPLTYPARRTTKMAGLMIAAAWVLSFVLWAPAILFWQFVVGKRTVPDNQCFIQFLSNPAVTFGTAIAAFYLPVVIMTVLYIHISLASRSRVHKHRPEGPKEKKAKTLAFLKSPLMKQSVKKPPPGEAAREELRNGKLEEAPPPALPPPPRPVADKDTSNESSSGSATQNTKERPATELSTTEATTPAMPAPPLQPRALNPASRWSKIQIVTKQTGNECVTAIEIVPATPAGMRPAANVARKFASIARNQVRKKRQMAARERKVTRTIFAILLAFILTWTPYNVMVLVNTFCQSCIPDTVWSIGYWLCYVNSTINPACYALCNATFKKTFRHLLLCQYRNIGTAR

[13] = molecular target: Acetylcholinesterase (Homo sapiens, UniProt P22303); experiment: DRUGMATRIX: Acetylcholinesterase enzyme inhibition (substrate: acetylthiocholine); type: cell-based, HEK293; settings: hek293; Not Active = under 50% inhibition at 10 µM
Chain of Acetylcholinesterase (P22303 whole entry): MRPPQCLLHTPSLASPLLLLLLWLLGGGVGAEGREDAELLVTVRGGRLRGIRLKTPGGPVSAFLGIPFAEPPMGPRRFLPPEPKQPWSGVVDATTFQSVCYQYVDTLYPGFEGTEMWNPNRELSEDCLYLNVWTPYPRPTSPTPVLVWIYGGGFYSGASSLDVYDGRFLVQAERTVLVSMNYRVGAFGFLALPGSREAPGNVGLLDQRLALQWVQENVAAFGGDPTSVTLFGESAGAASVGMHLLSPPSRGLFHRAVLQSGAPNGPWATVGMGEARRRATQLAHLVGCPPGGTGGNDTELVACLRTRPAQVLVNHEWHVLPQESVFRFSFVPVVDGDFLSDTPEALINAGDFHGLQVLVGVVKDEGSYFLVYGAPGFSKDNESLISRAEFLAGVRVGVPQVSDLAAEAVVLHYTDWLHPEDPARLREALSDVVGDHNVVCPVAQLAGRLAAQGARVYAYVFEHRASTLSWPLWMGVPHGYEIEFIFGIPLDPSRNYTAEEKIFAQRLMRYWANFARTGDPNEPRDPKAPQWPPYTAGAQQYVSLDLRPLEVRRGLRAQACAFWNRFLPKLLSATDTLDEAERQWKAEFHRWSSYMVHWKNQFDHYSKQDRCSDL

GOLD SODIUM THIOMALATE
Not Active: IC50 [1] | Ki [1] | IC50 [2] | Ki [2] | IC50 [3] | Ki [3] | IC50 [4] | Ki [4] | IC50 [5] | Ki [5] | IC50 [6] | Ki [6] | IC50 [7] | Ki [7] | IC50 [8] | Ki [8] | IC50 [9] | Ki [9] | IC50 [10] | Ki [10] | IC50 [11] | Ki [11] | IC50 [12] | Ki [12] | IC50 [13] | Ki [13]

OXALIPLATIN
Not Active: IC50 [1] | Ki [1] | IC50 [2] | Ki [2] | IC50 [3] | Ki [3] | IC50 [4] | Ki [4] | IC50 [5] | Ki [5] | IC50 [6] | Ki [6] | IC50 [7] | Ki [7] | IC50 [8] | Ki [8] | IC50 [9] | Ki [9] | IC50 [10] | Ki [10] | IC50 [11] | Ki [11] | IC50 [12] | Ki [12] | IC50 [13] | Ki [13]
